Drawing on ChEMBL document CHEMBL3286253, “Design, synthesis, and structure-activity relationship studies of novel thioether pleuromutilin derivatives as potent antibacterial agents” (J Med Chem, 2014), this text covers MIC for seven compounds.

SMILES strings stand for the structures. In brackets after ≈: the same amount, converted by molar mass.

Type in all cases: functional
Experiment [1] relates to Staphylococcus aureus. The experiment is described as follows: Antibacterial activity against methicillin-resistant Staphylococcus aureus after 16 hrs by agar dilution method. (In agar dilution, organisms are placed on agar that contains the substance at set levels.)
The subject of experiment [2] is Staphylococcus epidermidis. The experiment is described as follows: Antibacterial activity against methicillin-resistant Staphylococcus epidermidis after 16 hrs by agar dilution method.
Experiment [3] relates to Streptococcus pneumoniae. The experiment is described as follows: Antibacterial activity against penicillin-resistant Streptococcus pneumoniae after 16 hrs by agar dilution method.
Experiment [4] relates to Staphylococcus epidermidis. The experiment is described as follows: Antibacterial activity against methicillin-sensitive Staphylococcus epidermidis after 16 hrs by agar dilution method.
The test system of experiment [5] is Staphylococcus aureus. The experiment can be described thus: Antibacterial activity against methicillin-sensitive Staphylococcus aureus after 16 hrs by agar dilution method.
In experiment [6] the test system is Staphylococcus aureus. The experiment can be described thus: Antibacterial activity against Staphylococcus aureus […] after 16 hrs by agar dilution method.

One may read the MIC as the lowest concentration found to suppress growth. Lower therefore signals a more susceptible organism.

With `C=C[C@]1(C)C[C@@H](OC(=O)CSc2cccnn2)[C@]2(C)[C@H](C)CC[C@]3(CCC(=O)[C@H]32)[C@@H](C)[C@@H]1O`, the MIC was 0.25 µg/mL (≈ 0.529 µM) in experiment [1]; 0.063 µg/mL (≈ 0.133 µM) in experiment [2]; 0.125 µg/mL (≈ 0.264 µM) in experiment [3]; 0.063 µg/mL (≈ 0.133 µM) in experiment [4]; 0.125 µg/mL (≈ 0.264 µM) in experiment [5]; 0.25 µg/mL (≈ 0.529 µM) in experiment [6].
With `C=C[C@]1(C)C[C@@H](OC(=O)CSc2ccncc2CO)[C@]2(C)[C@H](C)CC[C@]3(CCC(=O)[C@H]32)[C@@H](C)[C@@H]1O`, the MIC was found to be 0.063 µg/mL (≈ 0.126 µM) in experiment [1]; 0.063 µg/mL (≈ 0.126 µM) in experiment [2]; 0.125 µg/mL (≈ 0.249 µM) in experiment [3]; 0.063 µg/mL (≈ 0.126 µM) in experiment [4]; 0.063 µg/mL (≈ 0.126 µM) in experiment [5]; 0.063 µg/mL (≈ 0.126 µM) in experiment [6].
As to `C=C[C@]1(C)C[C@@H](OC(=O)CSc2nccs2)[C@]2(C)[C@H](C)CC[C@]3(CCC(=O)[C@H]32)[C@@H](C)[C@@H]1O`, the MIC in experiment [1] is 0.5 µg/mL (≈ 1.05 µM); in experiment [2] it was 0.25 µg/mL (≈ 0.523 µM); in experiment [3], 0.5 µg/mL (≈ 1.05 µM); in experiment [4] it was 0.25 µg/mL (≈ 0.523 µM); in experiment [5], 0.5 µg/mL (≈ 1.05 µM); in experiment [6], 0.5 µg/mL (≈ 1.05 µM).
In the case of `C=C[C@]1(C)C[C@@H](OC(=O)CSc2ncccc2CO)[C@]2(C)[C@H](C)CC[C@]3(CCC(=O)[C@H]32)[C@@H](C)[C@@H]1O`, the MIC in experiment [1] is 0.125 µg/mL (≈ 0.249 µM); in experiment [2], 0.125 µg/mL (≈ 0.249 µM); in experiment [3], 0.125 µg/mL (≈ 0.249 µM); in experiment [4] it was 0.063 µg/mL (≈ 0.126 µM); in experiment [5] it was 0.125 µg/mL (≈ 0.249 µM); in experiment [6], 0.125 µg/mL (≈ 0.249 µM).
Take `C=C[C@]1(C)C[C@@H](OC(=O)CSc2cncc(NC(=O)[C@H](C)N)c2)[C@]2(C)[C@H](C)CC[C@]3(CCC(=O)[C@H]32)[C@@H](C)[C@@H]1O`: the MIC in experiment [1], in experiment [2], in experiment [3], in experiment [4], in experiment [5] and in experiment [6] was 0.125 µg/mL (≈ 0.224 µM) in each case.
For `C=C[C@]1(C)C[C@@H](OC(=O)CSc2cncc(OC)c2)[C@]2(C)[C@H](C)CC[C@]3(CCC(=O)[C@H]32)[C@@H](C)[C@@H]1O`, the MIC in experiment [1] turned out to be 0.125 µg/mL (≈ 0.249 µM); in experiment [2], 0.125 µg/mL (≈ 0.249 µM); in experiment [3], 0.125 µg/mL (≈ 0.249 µM); in experiment [4] it was 2 µg/mL (≈ 3.99 µM); in experiment [5] it was 0.125 µg/mL (≈ 0.249 µM); in experiment [6], 1 µg/mL (≈ 1.99 µM).
Turning to `C=C[C@]1(C)C[C@@H](OC(=O)CSc2cncc(NC(=O)[C@@H](N)C(C)C)c2)[C@]2(C)[C@H](C)CC[C@]3(CCC(=O)[C@H]32)[C@@H](C)[C@@H]1O`, the MIC turned out to be 0.125 µg/mL (≈ 0.213 µM) in experiment [1]; 0.125 µg/mL (≈ 0.213 µM) in experiment [2]; 0.125 µg/mL (≈ 0.213 µM) in experiment [3]; 0.125 µg/mL (≈ 0.213 µM) in experiment [4]; 0.125 µg/mL (≈ 0.213 µM) in experiment [5]; 0.25 µg/mL (≈ 0.427 µM) in experiment [6].
